The sequences below were run on IPEC-J2-Lucia ARE cells (assay: ARE luciferase reporter assay). Details: peptide 100 μg/mL, 12 h, luminescence.
Type: cell-based
Text: (§1) The ARE sequences and NF-κB element sequences are referenced in [52, 54]. Based on the sequence information, plasmids pCD-ARE-puro and pCDH-NF-κB-puro were constructed. These plasmids, along with pMD2.G and psPAX2, were transfected into HEK293T cells using a three-plasmid virus packaging system to produce viruses. The virus supernatants were then used to infect IPEC-J2 or RAW 264.7 cells, followed by positive clone screening with Puromycin. For the testing of stable cell lines, tBHQ was used for IPEC-J2-Lucia ARE cells and LPS was used for RAW-Lucia NF-κB cells.
(§2) Candidate peptides (100 μg/mL) were incubated with RAW-Lucia NF-κB or IPEC-J2-Lucia ARE cells (3 × 10⁵ cells/well) in 96-well plates for 12 h. LPS (100 ng/mL) was used as the positive control for the RAW-Lucia NF-κB cells and tBHQ (10 μM) was used as the positive control for the IPEC-J2-Lucia ARE cells. Subsequently, 15 μL of the culture supernatant was mixed with 50 μL of detection buffer (50 mM HEPES, pH 7.0; 50 mM NaCl; 0.05% CHAPS; 10 mM EDTA; and 1 μM coelenterazine). Luminescence was measured using a multimode plate reader, and relative luminescence units (RLUs) were calculated.

Row | Sequence | Stimulation of the ARE pathway (result in words)
1 | RKDVYYGPSSYGYG [PY, hybrid peptide of parent peptides P and Y] | stimulate the ARE pathway
2 | KEKKEVVEYGPSSYGYG [TaY, hybrid peptide of parent peptides Ta and Y] | stimulate the ARE pathway
3 | QLNWDRKDVY [MP, hybrid peptide of parent peptides M and P] | stimulate the ARE pathway
4 | YGPSSYGYGRKDVY [YP, hybrid peptide of parent peptides Y and P] | stimulate the ARE pathway

What follows are sequences tested on RAW-Lucia NF-κB cells (assay: NF-κB luciferase reporter assay). Details: peptide 100 μg/mL, 12 h, luminescence, p < 0.05 vs control group.
Type: cell-based, mouse
Text: as §1, §2

Row | Sequence | Activation of the NF-κB signaling pathway (result in words)
5 | EVVEEAYGPSSYGYG [TbY, hybrid peptide of parent peptides Tb and Y] | significantly activated
6 | RKDVYRGPPP [PR, hybrid peptide of parent peptides P and R] | significantly activated
7 | YGPSSYGYGKEKKEVVE [YTa, hybrid peptide of parent peptides Y and Ta] | significantly activated
8 | RGPPPRKDVY [RP, hybrid peptide of parent peptides R and P] | significantly activated

Each sequence was assayed on TNF-α (assay: ELISA of TNF-α in RAW 264.7 culture supernatant). Details: RAW 264.7 cells, peptide 100 μg/mL, 24 h, vs CON group.
Type: cell-based, mouse
Procedure: (§3) RAW 264.7 macrophages (2 × 10^6 cells/well) were seeded in 6-well plates and incubated for 12 h. Hybrid peptides and parent peptides were added to achieve a final concentration of 100 μg/mL, LPS (100 ng/mL) as a positive control. After 24 h of incubation, the culture supernatants were collected, and the levels of TNF-α, IL-6, and IL-1β were measured using ELISA kits according to the manufacturer’s instructions (Solarbio, Beijing, China).

Row | Sequence | Expression of TNF-α (result in words)
9 | EVVEEAYGPSSYGYG [TbY, hybrid peptide of parent peptides Tb and Y] | significantly upregulated
10 | RKDVYRGPPP [PR, hybrid peptide of parent peptides P and R] | significantly upregulated
11 | KEKKEVVEYGPSSYGYG [TaY, hybrid peptide of parent peptides Ta and Y] | significantly upregulated
12 | RGPPPRKDVY [RP, hybrid peptide of parent peptides R and P] | significantly upregulated
13 | QLNWDRKDVY [MP, hybrid peptide of parent peptides M and P] | significantly upregulated

The sequences below were run on HepG2 cells (assay: H2O2-induced oxidative damage model in HepG2 cells). Details: peptide 100 ng/mL pre-incubation 2 h, then H2O2 650 μM 6 h, CCK-8.
Type: cell-based
Procedure: HepG2 cells (2 × 10^5 cells/well) were seeded into 96-well plates and incubated overnight at 37 °C with 5% CO2. The supernatant was removed, and hybrid or parent peptides were added at a final concentration of 100 ng/mL for 2 h. H2O2 (Sigma-Aldrich, St. louis, MO, USA) was then added to a final concentration of 650 μM and the cells were further incubated for 6 h. Cell viability was assessed using the CCK-8 assay.

Row | Sequence | Increase of HepG2 cell viability compared to the H2O2-treated group [%]
14 | YGPSSYGYGKEKKEVVE [YTa, hybrid peptide of parent peptides Y and Ta] | 12

Same assay, conditions: peptide 100 ng/mL pre-incubation 2 h, then H2O2 650 μM 6 h, CCK-8 viability, vs model group

Row | Sequence | Protective effect against H2O2-induced oxidative damage (result in words)
15 | RKDVYYGPSSYGYG [PY, hybrid peptide of parent peptides P and Y] | significant differences compared to the model group
16 | KEKKEVVEYGPSSYGYG [TaY, hybrid peptide of parent peptides Ta and Y] | significant differences compared to the model group
17 | YGPSSYGYGKEKKEVVE [YTa, hybrid peptide of parent peptides Y and Ta] | significant differences compared to the model group
18 | QLNWDRKDVY [MP, hybrid peptide of parent peptides M and P] | significant differences compared to the model group

These sequences were tested on IL-1β (assay: ELISA of IL-1β in RAW 264.7 culture supernatant). Details: RAW 264.7 cells, peptide 100 μg/mL, 24 h, vs CON group.
Type: cell-based, mouse
Procedure: as §3

Row | Sequence | Expression of IL-1β (result in words)
19 | EVVEEAYGPSSYGYG [TbY, hybrid peptide of parent peptides Tb and Y] | significantly upregulated
20 | RKDVYRGPPP [PR, hybrid peptide of parent peptides P and R] | significantly upregulated
21 | KEKKEVVEYGPSSYGYG [TaY, hybrid peptide of parent peptides Ta and Y] | significantly upregulated
22 | RGPPPRKDVY [RP, hybrid peptide of parent peptides R and P] | significantly upregulated
23 | QLNWDRKDVY [MP, hybrid peptide of parent peptides M and P] | significantly upregulated
24 | YGPSSYGYGEVVEEA [YTb, hybrid peptide of parent peptides Y and Tb] | particularly upregulated

Each sequence was assayed on IL-6 (assay: ELISA of IL-6 in RAW 264.7 culture supernatant). Details: RAW 264.7 cells, peptide 100 μg/mL, 24 h, vs CON group.
Type: cell-based, mouse
Procedure: as §3

Row | Sequence | Expression of IL-6 (result in words)
25 | EVVEEAYGPSSYGYG [TbY, hybrid peptide of parent peptides Tb and Y] | significantly upregulated
26 | RKDVYRGPPP [PR, hybrid peptide of parent peptides P and R] | significantly upregulated
27 | KEKKEVVEYGPSSYGYG [TaY, hybrid peptide of parent peptides Ta and Y] | significantly upregulated
28 | YGPSSYGYGKEKKEVVE [YTa, hybrid peptide of parent peptides Y and Ta] | significantly increased
29 | RGPPPRKDVY [RP, hybrid peptide of parent peptides R and P] | significantly upregulated
30 | QLNWDRKDVY [MP, hybrid peptide of parent peptides M and P] | significantly upregulated
31 | YGPSSYGYGEVVEEA [YTb, hybrid peptide of parent peptides Y and Tb] | particularly upregulated

Reference: article PMC11764585, “Hybridization Design and High-Throughput Screening of Peptides with Immunomodulatory and Antioxidant Activities” (International Journal of Molecular Sciences, 2025)
